Where a name gives a salt, the structure may show the parent alone. Read-outs that look alike come from different tables or passages of the source. Blank lines part the entries; values can stand above or below the compound they belong to.
Tests used:
[1] = Miscibility and stability in matrix and application; conditions: for miscibility and stability properties compared to DPG: fragrance oil matrix and Eau de Toilette (at 10%)
Excerpt: The miscibility and stability of the solvent mixture of the present invention was compared with those of DPG and the pure mixture ingredients. The miscibility with isopropyl myristate (IPM) and ethylene brassylate (EB) mimics the miscibility with a fragrance oil matrix.

[2] = Solubility by visual inspection
Method: (§1) If the sample is dissolved, there is low absorbance (close to zero), any turbidity (>0.5) indicates incomplete solution.

[3] = Solubility by absorption spectrometry (absorbance at 600 nm, 1 cm path)
Method: as §1

[4] = Solubility and storage stability of fragrance ingredients in TEC/1,3-butylene glycol 80/20 mixture; type: physicochemical; conditions: for solubility: t = 0, 5 min. heating at 50° C. + 8-10 hrs. stirring at room temperature
Method: In the table above, the solubility of single ingredients solubility has been summarized. […] Furthermore, the storage stability at 5 and 60° C. for 14 days have been tested.

[5] = Vanillin solubility in other solvents; type: physicochemical
[6] = 10% in EDT premix, 14 days 5° C.
[7] = 10% in EDT premix, t = 0 at room temperature
[8] = 10% in 1,3-butylene glycol (*), sample heated and cooled down to room temperature
[9] = 10% in 1:1 MIX (*), sample heated and cooled down to room temperature
[10] = 10% in 1:3 MIX (*), sample heated and cooled down to room temperature
[11] = 10% in 3:1 MIX (*), sample heated and cooled down to room temperature
[12] = 10% in TEC (*), sample heated and cooled down to room temperature
[13] = 1% in 1,3-butylene glycol (*), sample heated and cooled down to room temperature
[14] = 1% in 1:3 MIX (*), sample heated and cooled down to room temperature
[15] = 1% in 3:1 MIX (*), sample heated and cooled down to room temperature
[16] = 1% in TEC (*), sample heated and cooled down to room temperature

visual inspection [2, 8]: soluble
visual inspection [2, 9]: soluble
visual inspection [2, 10]: soluble
visual inspection [2, 11]: soluble
visual inspection [2, 12]: soluble
ultrasonic bath, spectrometer [3, 8]: 0.06 AU
ultrasonic bath, spectrometer [3, 9]: 0.05 AU
ultrasonic bath, spectrometer [3, 10]: 0.00 AU
ultrasonic bath, spectrometer [3, 11]: 0.02 AU
ultrasonic bath, spectrometer [3, 12]: 0.07 AU
Structure (SMILES): O=c1ccc2ccccc2o1 [Coumarine Pure Crist, 1-benzopyran-2-one]

visual inspection [2, 13]: non soluble
visual inspection [2, 14]: soluble
visual inspection [2, 15]: soluble
visual inspection [2, 16]: non soluble
ultrasonic bath, spectrometer [3, 13]: solid
ultrasonic bath, spectrometer [3, 14]: 0.02 AU
ultrasonic bath, spectrometer [3, 15]: 0.02 AU
ultrasonic bath, spectrometer [3, 16]: solid
Structure (SMILES): Cc1occc(=O)c1O [Maltol Lg Crist, 3-hydroxy-2-methyl pyran-4-one]

miscibility and stability rating ([1]; 3% in EDT premix, 24 h UV): clear
miscibility and stability rating ([1]; 3% in EDT premix, 14 days 5° C.): clear
miscibility and stability rating ([1]; 3% in EDT premix, 14 days −10° C.): clear
miscibility and stability rating ([1]; 3% in EDT premix, t = 0 at room temperature): clear
miscibility and stability rating ([1]; 5% in EDT premix, 24 h UV): clear
miscibility and stability rating ([1]; 5% in EDT premix, 14 days 5° C.): clear
miscibility and stability rating ([1]; 5% in EDT premix, 14 days −10° C.): clear
miscibility and stability rating ([1]; 5% in EDT premix, t = 0 at room temperature): clear
miscibility and stability rating ([1]; 10% in EB, 24 h UV): clear
miscibility and stability rating ([1]; 10% in EB, 14 d 60° C.): clear
miscibility and stability rating ([1]; 10% in EB, 14 days 5° C.): clear
miscibility and stability rating ([1]; 10% in EDT premix, 24 h UV): clear
miscibility and stability rating ([1]; 10% in EDT premix, 14 d 60° C.): clear
miscibility and stability rating [1, 6]: clear
miscibility and stability rating ([1]; 10% in EDT premix, 14 days −10° C.): clear
miscibility and stability rating [1, 7]: clear
miscibility and stability rating ([1]; 10% in IPM, 24 h UV): clear
miscibility and stability rating ([1]; 10% in IPM, 14 d 60° C.): clear
miscibility and stability rating ([1]; 10% in IPM, 14 days 5° C.): clear
miscibility and stability properties compared to DPG [1]: show disadvantages when compared to DPG
Structure (SMILES): CCOC(=O)CC(O)(CC(=O)OCC)C(=O)OCC [TEC, Triethyl citrate]

solubility ([4]; 15% in MIX 80/20): Solubility OK
solubility ([4]; 20% in MIX 80/20): Solubility OK
solubility ([4]; 25% in MIX 80/20): Solubility OK
amount that can be dissolved ([4]; in the solvent mixture of the present invention): at least 25%
amount that can be dissolved ([5]; in DPG, when saturation occurs): about 20%
amount that can be dissolved ([5]; in triethylcitrate (TEC)): less than 15%
Structure (SMILES): COc1cc(C=O)ccc1O [vanillin, 4-hydroxy-3-methoxybenzaldehyde]

The next lines start with the compound.

Structure (SMILES): CC(O)CCO (centres unmarked) [1,3-butylene glycol]
miscibility and stability rating ([1]; 10% in EDT premix, 24 h UV): clear
miscibility and stability rating [1, 6]: clear
miscibility and stability rating [1, 7]: clear
miscibility and stability rating ([1]; 10% in IPM, 14 days 5° C.): biphasic, hazy
miscibility and stability properties compared to DPG [1]: show disadvantages when compared to DPG
miscibility and stability rating ([1]; pure, 14 days 5° C.): clear

Structure (SMILES): CCOc1cc(C=O)ccc1O [Ethyl Vanilline, 3-Ethoxy-4-hydroxybenzaldehyde]
ultrasonic bath, spectrometer (30 %): 0.00 AU
ultrasonic bath, spectrometer (40 %): 0.04 AU

Structure (SMILES): N#CC(=C1CCCCC1)c1ccccc1 [Peonile, 2-cyclohexylidene-2-phenylacetonitrile]
visual inspection ([2]; 10% in 1,3-butylene glycol): non soluble
visual inspection ([2]; 10% in 1:1 MIX): soluble
visual inspection ([2]; 10% in 1:3 MIX): soluble
visual inspection ([2]; 10% in 3:1 MIX): soluble
visual inspection ([2]; 10% in TEC): soluble
ultrasonic bath, spectrometer ([3]; 10% in 1,3-butylene glycol): >2 AU
ultrasonic bath, spectrometer ([3]; 10% in 1:1 MIX): 0.00 AU
ultrasonic bath, spectrometer ([3]; 10% in 1:3 MIX): 0.02 AU
ultrasonic bath, spectrometer ([3]; 10% in 3:1 MIX): 0.02 AU
ultrasonic bath, spectrometer ([3]; 10% in TEC): 0.02 AU

Source: patent publication US20250032375A1, “SOLVENT MIXTURES COMPRISING 1,3-BUTYLENE GLYCOL AND TRIETHYL-CITRATE” (Givaudan SA, priority 2022, published 2025)
